Results published in ChEMBL document CHEMBL4651402, “Screening of ~5500 FDA-approved drugs and clinical candidates for anti-SARS-CoV-2 activity” (2021).

Test system: SARS-CoV-2
Assay: microbe, parasite or virus in culture
Settings: Severe acute respiratory syndrome coronavirus 2, Vero C1008, 48 h

| SMILES | IC50 [µM] | IC50 (read-out: pIC50 (converted)) [µM] |
| --- | --- | --- |
| O=C(O)c1cc(O)c(O)c(O)c1 [GALLIC ACID] | > 20 | > 20 |
| Cc1ccc(-c2ncc(Cl)cc2-c2ccc(S(C)(=O)=O)cc2)cn1 [ETORICOXIB] | > 20 | > 20 |
| CCCCN1CCC(CNC(=O)c2c3n(c4ccccc24)CCCO3)CC1 [PIBOSEROD] | > 20 | > 20 |
| CS(=O)(=O)c1ccc([C@@H](O)[C@H](CF)NC(=O)C(Cl)Cl)cc1 | > 20 | > 20 |
| N/C=C1\Cc2ccccc2C1=O | > 20 | > 20 |
| O=C(NCC1CCCCN1)c1cc(OCC(F)(F)F)ccc1OCC(F)(F)F (centres undefined) [FLECAINIDE] | > 20 | > 20 |
| C[C@@H]1CC2C3CCC4=CC(=O)C=CC4(C)[C@@]3(Cl)C(Cl)CC2(C)[C@@]1(O)C(=O)CO (some centres undefined) | > 20 | > 20 |
| CC(=O)O[C@H]1C[C@@]2(C)[C@@H](C[C@@H](O)[C@H]3[C@@]4(C)CC[C@@H](O)[C@@H](C)[C@@H]4CC[C@@]32C)/C1=C(\CCC=C(C)C)C(=O)O [FUSIDIC ACID] | > 20 | > 20 |
| CCC(Cc1c(I)cc(I)c(N)c1I)C(=O)O (centres undefined) [IOPANOIC ACID] | > 20 | > 20 |
| COCCCC/C(=N\OCCN)c1ccc(C(F)(F)F)cc1 [FLUVOXAMINE] | > 20 | > 20 |
| COc1ccc(-c2cc(=S)ss2)cc1 [ANETHOLTRITHION] | > 20 | > 20 |
| COc1cc2c(cc1O)CCNC2C (centres undefined) [SALSOLINE] | > 20 | > 20 |
| Nc1nc(=S)c2ncn([C@@H]3O[C@H](CO)[C@@H](O)[C@H]3O)c2[nH]1 [THIOGUANOSINE] | > 20 | > 20 |
| COc1cccc2c1C(=O)c1c(O)c3c(c(O)c1C2=O)CC(O)(/C(C)=N/NC(=O)c1ccccc1)CC3OC1CC(N)C(O)C(C)O1 (centres undefined) | > 20 | > 20 |
| CC12C=CC(=O)C=C1CCC1C2CCC2(C)C(O)CCC12 (centres undefined) | > 20 | > 20 |
| CCOc1cc(N)c(Cl)cc1C(=O)NCC1CN(Cc2ccc(F)cc2)CCO1 (centres undefined) [MOSAPRIDE] | > 20 | > 20 |
| Cc1[nH]nc(C(F)(F)F)c1Cc1sc2c(c1C(=O)N1C[C@](C)(O)CO1)c(=O)n(C)c(=O)n2C(C)C [AZD3965] | > 20 | > 20 |
| O[C@@H]1CO[C@H]2[C@@H]1OC[C@@H]2O [ISOSORBIDE] | > 20 | > 20 |
| O=c1cc(-c2ccc(O)c(O)c2)oc2cc(O)cc(O)c12 [LUTEOLIN] | > 20 | > 20 |
| CS(=O)(=O)N1CCN(Cc2cc3nc(-c4cccc5[nH]ncc45)nc(N4CCOCC4)c3s2)CC1 [PICTILISIB] | > 20 | > 20 |
| CN[C@@H](C)C/C=C/c1cncc(OC(C)C)c1 [ISPRONICLINE] | > 20 | > 20 |

| SMILES | IC50 [µM] | IC50 (read-out: pIC50 (converted)) [µM] |
| --- | --- | --- |
| NNCc1ccccc1 [BENZYLHYDRAZINE] | > 20 | > 20 |
| CO[C@]12C[C@@H](COC(=O)c3cncc(Br)c3)CN(C)[C@@H]1Cc1cn(C)c3cccc2c13 [NICERGOLINE] | > 20 | > 20 |
| NC(=O)N1C(=O)/C(=C(\O)c2cccs2)c2cc(Cl)ccc21 [TENIDAP] | > 20 | > 20 |
| COc1cc(Nc2ncc3c(n2)-c2ccc(Cl)cc2C(c2c(F)cccc2OC)=NC3)ccc1C(=O)O [ALISERTIB] | > 20 | > 20 |
| O=C(O)c1cn(C2CC2)c2cc(N3CCC(O)(COc4ccc(N5C[C@H](CO)OC5=O)cc4F)CC3)c(F)cc2c1=O [CADAZOLID] | > 20 | > 20 |
| CC(=O)N(O)C/C=C/c1cccc(Oc2ccccc2)c1 | > 20 | > 20 |
| Cc1c(C)c2c(c(C)c1O)CCC(C)(COc1ccc(CC3SC(=O)NC3=O)cc1)O2 (centres undefined) [TROGLITAZONE] | > 20 | > 20 |
| CC(C(=O)O)c1cccc(C(=O)c2ccccc2)c1 (centres undefined) [KETOPROFEN] | > 20 | > 20 |
| CCOC(=O)C1(c2ccccc2)CCN(C)CC1 [MEPERIDINE] | > 20 | > 20 |
| CCCCNC(=N)NC(=N)N [BUFORMIN] | > 20 | > 20 |
| c1ccc(-c2ccc(C(c3ccccc3)n3ccnc3)cc2)cc1 (centres undefined) [BIFONAZOLE] | > 20 | > 20 |
| N[C@@H](CSCCCO)C(=O)O [FUDOSTEINE] | > 20 | > 20 |
| Cc1ccc(F)c(NC(=O)Nc2ccc(-c3cccc4[nH]nc(N)c34)cc2)c1 [LINIFANIB] | > 20 | > 20 |
| CC12CCC3C(CCC4CC(N)C(O)CC43C)C1CCC2=O (centres undefined) | > 20 | > 20 |
| CC(=O)N[C@H](Cc1c[nH]c2ccccc12)C(=O)O | > 20 | > 20 |
| Cc1nc(C)c(C)nc1C [LIGUSTRAZINE] | > 20 | > 20 |
| N=C(N)NC(=O)Cc1c(Cl)cccc1Cl [GUANFACINE] | > 20 | > 20 |
| CC[C@H]1OC(=O)[C@H](C)C(=O)[C@H](C)[C@@H](O[C@@H]2O[C@H](C)C[C@H](N(C)C)[C@H]2O)[C@](C)(OCC=Cc2cnc3ccccc3c2)C[C@@H](C)C(=O)[C@H](C)[C@H]2NC(=O)O[C@@]21C [CETHROMYCIN] | > 20 | > 20 |
| O=C(O)c1ccccc1O [SALICYLIC ACID] | > 20 | > 20 |
| CC(C)C(N)=O [ISOBUTYRAMIDE] | > 20 | > 20 |
| CC(C(=O)O)C1CCC2C3CC=C4C[C@@H](O)CC[C@]4(C)C3CC[C@]12C (some centres undefined) | > 20 | > 20 |

| SMILES | IC50 [µM] | IC50 (read-out: pIC50 (converted)) [µM] |
| --- | --- | --- |
| Cn1cnc2c1c(=O)[nH]c(=O)n2C [THEOBROMINE] | > 20 | > 20 |
| O=C(Nc1ccc(OC(F)(F)F)cc1)c1sccc1NCc1ccnc2ccccc12 [OSI-930] | > 20 | > 20 |
| CC[C@H]1C(C)=NN=C(c2ccc(OC)c(OC)c2)c2cc(OC)c(OC)cc21 [DEXTOFISOPAM] | > 20 | > 20 |
| C=CC(=O)N1CCC([C@@H]2CCNc3c(C(N)=O)c(-c4ccc(Oc5ccccc5)cc4)nn32)CC1 [ZANUBRUTINIB] | > 20 | > 20 |
| CC(C)(C)c1nc(-c2cccc(NS(=O)(=O)c3c(F)cccc3F)c2F)c(-c2ccnc(N)n2)s1 [DABRAFENIB] | > 20 | > 20 |
| O=C(O)c1cn(-c2ccc(F)cc2)c2cc(N3CCNCC3)c(F)cc2c1=O [SARAFLOXACIN] | > 20 | > 20 |
| CN1CCN(/C=C2\N=C3CN=C(c4ccccc4Cl)c4cc([N+](=O)[O-])ccc4N3C2=O)CC1 [LOPRAZOLAM] | > 20 | > 20 |
| C=C1c2cccc(O)c2C(=O)C2=C(O)[C@]3(O)C(=O)C(C(N)=O)=C(O)[C@@H](N(C)C)[C@@H]3[C@@H](O)[C@H]12 [METHACYCLINE] | > 20 | > 20 |
| O=C1c2ccccc2C(=O)c2c1ccc(O)c2O [ATHRAQUINONES A] | > 20 | > 20 |
| N[C@H](Cc1c[nH]cn1)C(=O)O [D-HISTIDINE] | > 20 | > 20 |
| Cc1ccc(S(=O)(=O)NC(=O)NN2CCCCCC2)cc1 [TOLAZAMIDE] | > 20 | > 20 |
| CC(C)C(=O)OC[C@H]1O[C@@H](n2ccc(N)nc2=O)[C@](C)(F)[C@@H]1OC(=O)C(C)C [MERICITABINE] | > 20 | > 20 |
| C[C@]12CC[C@H](O)CC1=CC[C@@H]1[C@@H]2CC[C@]2(C)C(c3cccnc3)=CC[C@@H]12 [ABIRATERONE] | > 20 | > 20 |
| COC1C(OC(=O)/C=C/C=C/C=C/C=C/C(=O)O)CCC2(CO2)C1C1(C)OC1CC=C(C)C (centres undefined) | > 20 | > 20 |
| O=C1CCC(N2C(=O)c3ccccc3C2=O)C(=O)N1 (centres undefined) [THALIDOMIDE] | > 20 | > 20 |
| COc1cc2nc(N3CCN(C(=O)c4ccco4)CC3)nc(N)c2cc1OC [PRAZOSIN] | > 20 | > 20 |
| CC(C)NNC(=O)c1ccncc1 [IPRONIAZID] | > 20 | > 20 |
| OC[C@H]1O[C@@H](O[C@@H]2[C@@H](CO)O[C@](O)(CO)[C@H]2O)[C@H](O)[C@@H](O)[C@H]1O [LACTULOSE] | > 20 | > 20 |
| C/C=C1\[C@H]2C=C(C)C[C@]1(N)c1ccc(=O)[nH]c1C2 [HUPERZINE A] | > 20 | > 20 |
| O=c1c(O)c(-c2ccccc2)oc2cc(O)ccc12 [3,7-DIHYDROXYFLAVONE] | > 20 | > 20 |
